Where two headings read alike, the source gives them in different places.
Legend:
[1] = MTT cell viability assay, NHDF; type: cell-based, human; conditions: human, normal human dermal fibroblasts (NHDF), single concentration of 10 µM, 72 h, mean ± SD; read-out: cell viability percentage in relation with control, NHDF
Protocol: (§1) Caco-2, MCF-7, PC-3, and NHDF cell lines were obtained from the American Type Culture Collection (ATCC) and maintained in 75 cm^2 culture flasks in a humidified atmosphere at 37 °C with 5% carbon dioxide using a LEEC Culture Safe Precision CO2 Incubator. The culture media was renewed every two to three days. The NHDF cell line was cultured in Roswell Park Memorial Institute (RPMI) medium supplemented with 10% of inactivated fetal bovine serum (FBS), 2 mM of L-glutamine, 10 mM of 4-(2-hydroxyethyl)-1-piperazineethanesulfonic acid (HEPES), 1 mM of sodium pyruvate, and 1% of antibiotic/antimycotic mixture (Ab; 10,000 U/mL of penicillin G, […] of streptomycin, and 25 µg/mL of amphotericin B). The PC-3 cell line was also cultured in RPMI 1640 medium supplemented with 10% inactivated FBS and 1% of an antibiotic mixture (Sp; 10,000 U/mL of penicillin G and […] of streptomycin). The Caco-2 and MCF-7 cell lines were grown in Dulbecco’s Modified Eagle Medium (DMEM). Caco-2 was supplemented with 20% of inactivated FBS and 1% of Sp. On the other hand, the MCF-7 medium was complemented with 10% of inactivated FBS and 1% of Ab. All manipulations were performed in a Labculture Class II A2 Biological Safety Cabinet.
(§2) After the near confluency of cultures, cells were detached with a solution of 0.125 g/L trypsin and 0.02 g/L ethylenediaminetetracetic acid (EDTA), counted using the trypan blue method, resuspended, and seeded in 96-well culture plates (100 µL, 2 × 10^4 cells/mL). Following 48 h of adherence, cells were treated with the test solutions and incubated for 72 h. This incubation, as well as the solution manipulations, were performed in an environment protected from light. After the incubation, the medium was replaced with a fresh incomplete culture medium (without FBS and Ab or Sp) and MTT solution (5 mg/mL in phosphate buffer saline (PBS)). After additional incubation for 4 h, the MTT medium was removed, formazan crystals were dissolved in DMSO, and the optical density of each well was measured at 570 nm using a microplate spectrophotometer Bio-Rad xMark. Untreated cells were used as a negative control and 5-FU as the positive control. The results were expressed as the relative cell proliferation relative to the negative control cells. […] To determine the IC50 values, Caco-2, MCF-7, PC-3, and NHDF cells were exposed to increasing concentrations between 0.001 and 100 μM.

[2] = test system: Caco-2 colorectal adenocarcinoma cell line; assay: MTT cell viability assay, Caco-2; type: cell-based, human; conditions: for viability at 10 µM / cell viability percentage in relation with control, Caco-2: single concentration of 10 µM, mean ± SD; for viability at 10 µM / SI Caco-2 (selectivity index, cancer versus NHDF) / cell viability percentage in relation with control, Caco-2: 72 h; for viability at 10 µM: read-out: cell viability percentage in relation with control, Caco-2; for SI Caco-2 (selectivity index, cancer versus NHDF): Caco-2 versus NHDF; for IC50: 72 h of incubation, MTT, protected from light
Protocol: as §1, §2

[3] = test system: MCF-7 breast adenocarcinoma cell line; assay: MTT cell viability assay, MCF-7; type: cell-based, human; conditions: single concentration of 10 µM, 72 h, mean ± SD; for viability at 10 µM: Homo sapiens, read-out: cell viability percentage in relation with control, MCF-7
Protocol: as §1, §2

[4] = test system: PC-3 prostate adenocarcinoma cell line; assay: MTT cell viability assay, PC-3; type: cell-based, human
Protocol: as §1, §2

[5] = test system: normal human dermal fibroblasts (NHDF); assay: MTT cell viability assay, NHDF; type: cell-based; conditions: for IC50: 72 h of incubation, MTT, protected from light; for cell viability percentage in relation with control, NHDF: single concentration of 10 µM, mean ± SD
Protocol: as §1, §2

[6] = MTT cell viability assay, Caco-2; type: cell-based, human; conditions: human, Caco-2, Caco-2 versus NHDF, 72 h; read-out: SI Caco-2 (selectivity index, cancer versus NHDF)
Protocol: as §1, §2

[7] = Homo sapiens, 72 h, single concentration of 10 µM, 72 h, mean ± SD; read-out: cell viability percentage in relation with control, PC-3
[8] = single concentration of 10 µM, 72 h, mean ± SD

| SMILES | viability at 72 h, 10 µM [1] | viability at 10 µM ([2]; Homo sapiens, Caco-2, 72 h) | viability at 10 µM ([3]; MCF7, 72 h) | viability at 10 µM [4, 7] | melting point | IC50 ([5]; Homo sapiens, NHDF, 72 h) | SI Caco-2 (selectivity index, cancer versus NHDF) [2] | IC50 ([2]; Homo sapiens, Caco-2, 72 h) | selectivity ratio at 72 h [6] | further results |
| --- | --- | --- | --- | --- | --- | --- | --- | --- | --- | --- |
| c1ccc2sc(Cc3nc4ccccc4s3)nc2c1 [bisbenzothiazole 1, bis(benzo[d]thiazol-2-yl)methane] | 31 ± 0.57% | 59.6 ± 5.45% | 55.7 ± 4.97% | 53.2 ± 9.68% | 97 to 98 °C | – | – | – | – | – |
| CN1C(=Cc2sc3ccccc3[n+]2C)Sc2ccccc21.[Br-] [Dye 3, 3-Methyl-2-((3-methylbenzo[d]thiazol-2(3H)-ylidene)methyl)benzo[d]thiazol-3-ium bromide] | – | 1.68 ± 0.53% | – | 1.27 ± 0.31% | – | 410 nM | 0.8 | 520 nM | – | cell viability percentage in relation with control, NHDF ([5]; 72 h): 3.93 ± 0.75%; cell viability percentage in relation with control, MCF-7 [3]: 0.52 ± 0.39% |
| CCCCCCCCCCN1C(=Cc2sc3ccccc3[n+]2CCCCCCCCCC)Sc2ccccc21.[I-] [Dye 11, 3-Decyl-2-((3-decylbenzo[d]thiazol-2(3H)-ylidene)methyl)benzo[d]thiazol-3-ium iodide] | 0.15 ± 0.38% | 0.66 ± 0.44% | 0.1 ± 0.69% | 0.94 ± 0.11% | 232 to 233 °C | 720 nM | – | 1240 nM | 0.6 | – |
| CCCCCN1C(=Cc2sc3ccccc3[n+]2CCCCC)Sc2ccccc21.[I-] [Dye 10, 3-Pentyl-2-((3-pentylbenzo[d]thiazol-2(3H)-ylidene)methyl)benzo[d]thiazol-3-ium iodide] | 0.1 ± 0.36% | 1.02 ± 0.42% | 0.87 ± 2.53% | 0.97 ± 0.26% | 164 to 166 °C | 670 nM | 0.7 | 1240 nM | 0.6 | IC50 [2]: 1000 nM |
| CN1/C(=C/c2sc3ccccc3[n+]2C)Sc2ccccc21 [Dye 2, Methyl-2-((3-methylbenzo[d]thiazol-2(3H)-ylidene)methyl)benzo[d]thiazol-3-ium chloride] | 5.64 ± 1.15% | 2.18 ± 0.64% | 0.85 ± 0.34% | 1.29 ± 0.24% | – | 770 nM | 1.2 | 650 nM | – | – |
| CCCCCCCCCCN1C(=CC=C2CCCC(C=Cc3[se]c4ccccc4[n+]3CCCCCCCCCC)=C2Cl)[Se]c2ccccc21.[I-] [Dye 18, 2-(2-(2-Chloro-3-(2-(3-decylbenzo[d][1,3]selenazol-2(3H)-ylidene)ethylidene)cyclohex-1-en-1-yl)vinyl)-3-decylbenzo[d][1,3]selenazol-3-ium iodide] | 36.6 ± 1.75% | – | – | – | 221 to 224 °C | – | – | – | – | viability at 10 µM ([2]; Homo sapiens, Caco-2): 47.2 ± 5.29%; viability at 10 µM ([3]; MCF7): 51.8 ± 10.1%; viability at 10 µM ([4]; Homo sapiens; single concentration of 10 µM, 72 h, mean ± SD; read-out: cell viability percentage in relation with control, PC-3): 28.4 ± 7.73% |
| CCN1C(=CC=Cc2oc3ccccc3[n+]2CC)Oc2ccccc21 [Dye 15, 3-Ethyl-2-(3-(3-ethylbenzo[d]oxazol-2(3H)-ylidene)prop-1-en-1-yl)benzo[d]oxazol-3-ium iodide] | 3.72 ± 0.23% | 8.58 ± 0.92% | 6.03 ± 0.77% | 13.3 ± 1.9% | – | 4020 nM | – | 390 nM | 10.4 | – |
| COC(=O)CN1C(=Cc2sc3ccccc3[n+]2CC(=O)OC)Sc2ccccc21.[Br-] [Dye 9, 3-(2-Methoxy-2-oxoethyl)-2-((3-(2-methoxy-2-oxoethyl)benzo[d]thiazol-2(3H)-ylidene)methyl)benzo[d]thiazol-3-ium bromide] | 47.9 ± 3.64% | 47 ± 6.81% | 49 ± 13.9% | 46.8 ± 14% | 226 to 227 °C | – | – | 1000 nM | 0.7 | – |
| CCN1C(=Cc2sc3ccccc3[n+]2CC)Sc2ccccc21 [Dye 6] | 3.37 ± 0.65% | 3.52 ± 0.3% | 1.08 ± 0.23% | 2.06 ± 0.89% | – | 490 nM | – | 300 nM | 1.6 | – |
| CN1C(=Cc2sc3ccccc3[n+]2C)Sc2ccccc21.[I-] [Dye 4, 3-Methyl-2-((3-methylbenzo[d]thiazol-2(3H)-ylidene)methyl)benzo[d]thiazol-3-ium iodide] | – | – | – | – | – | – | 1.8 | – | – | IC50 ([5]; listed as 4): 730 nM; cell viability percentage in relation with control, NHDF ([5]; 72 h): 3.82 ± 0.21%; IC50 ([2]; listed as 4): 400 nM; cell viability percentage in relation with control, Caco-2 [2]: 3.01 ± 0.74%; cell viability percentage in relation with control, MCF-7 [3]: 2.26 ± 0.82%; cell viability percentage in relation with control, PC-3 [4, 8]: 1.18 ± 0.36% |
| CC1(C)C(=CC=C2CCCC(C=CC3=[N+](CCCCS(=O)(=O)O)c4ccccc4C3(C)C)=C2Cl)N(CCCCS(=O)(=O)O)c2ccccc21 [Dye 19, 2-(2-(2-Chloro-3-(2-(3,3-dimethyl-1-(4-sulfobutyl)indolin-2-ylidene)ethylidene)cyclohex-1-en-1-yl)vinyl)-3,3-dimethyl-1-(4-sulfobutyl)-3H-indol-1-ium iodide] | 42 ± 1.76% | 57.4 ± 1.75% | 94.4 ± 7.99% | 51.1 ± 5.32% | – | – | – | – | – | – |
| CN1C(=Cc2sc3ccccc3[n+]2C)Sc2ccccc21.Cc1ccc(S(=O)(=O)[O-])cc1 [Dye 5, 3-Methyl-2-((3-methylbenzo[d]thiazol-2(3H)-ylidene)methyl)benzo[d]thiazol-3-ium 4-methylbenzenesulfonate] | – | – | – | – | – | – | 2.4 | – | – | IC50 ([5]; listed as 5): 680 nM; cell viability percentage in relation with control, NHDF ([5]; 72 h): 4.42 ± 0.55%; IC50 ([2]; listed as 5): 280 nM; cell viability percentage in relation with control, Caco-2 [2]: 2.55 ± 0.58%; cell viability percentage in relation with control, MCF-7 [3]: 1.55 ± 0.53%; cell viability percentage in relation with control, PC-3 [4, 8]: 1 ± 0.18% |

Reference: publication PMC9503608, “An Insight into Symmetrical Cyanine Dyes as Promising Selective Antiproliferative Agents in Caco-2 Colorectal Cancer Cells” (Molecules, 2022)
